Values of other authors, collected in patent US20180243247A1, “DRUG COMBINATIONS FOR CEREBROVASCULAR DISEASE” (priority 2017, published 2018).
Read-outs that look alike come from different tables or passages of the source.

Assays:
[1] = test system: rodent models of CNS ischemia

Structure (SMILES) | neuroprotection ([1]; dose concentration of 0.1 mg/kg) | neuroprotection ([1]; lower doses than 0.1 mg/kg, monotherapy) | neuroprotective effects ([1]; rodent models of CNS ischemia) | calcium influx through the AMPA receptor (AMPA receptor)
C=CC[C@@H]1/C=C(\C)C[C@H](C)C[C@H](OC)[C@H]2O[C@@](O)(C(=O)C(=O)N3CCCC[C@H]3C(=O)O[C@H](/C(C)=C/[C@@H]3CC[C@@H](O)[C@H](OC)C3)[C@H](C)[C@@H](O)CC1=O)[C@H](C)C[C@@H]2OC [Tacrolimus] | neuroprotective | not neuroprotective | exhibits neuroprotective effects | 
NCCCNCCCCNCCC(=O)NCCCCCNC(=O)[C@H](CC(N)=O)NC(=O)Cc1ccc(O)cc1O [JSTX-3] |  |  |  | dramatically reduces calcium influx
